# Measured values: PubChem BioAssay AID248 (DTP/NCI, 2004)
# “And” between values parts separate entries of the source, which are not always exact repeats. Identical values can stand only once. Toxic doses and inconclusive results are not listed.
# System: L1210 leukemia ip in BDF1 mice, survival T/C
# Experiment: NCI In Vivo Anticancer Drug Screen. Data for tumor model L1210 Leukemia (intraperitoneal) in B6D2F1 (BDF1) mice
# Details: endpoint: mean survival time, higher = longer survival
# In short: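 Tumor was transplanted into mice, which were then dosed with test compound or vehicle alone. Survival was recorded for each group, and the treated figure was expressed relative to the control figure.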
# [1] = dose: 100.0 mg/kg/injection, schedule: Q01DX001 (ip), vehicle: carboxymethylcellulose (CMC)
# [2] = dose: 200.0 mg/kg/injection, schedule: Q01DX001 (ip), vehicle: carboxymethylcellulose (CMC)
# [3] = dose: 100.0 mg/kg/injection, schedule: Q01DX001 (ip), vehicle: saline
# [4] = dose: 200.0 mg/kg/injection, schedule: Q01DX001 (ip), vehicle: saline
# [5] = dose: 400.0 mg/kg/injection, schedule: Q01DX001 (ip), vehicle: saline
# [6] = dose: 50.0 mg/kg/injection, schedule: Q04DX003 (ip), vehicle: Klucel (hydroxypropylcellulose) (HPC)
# [7] = dose: 100.0 mg/kg/injection, schedule: Q01DX009 (ip), vehicle: Klucel (hydroxypropylcellulose) (HPC)
# [8] = dose: 100.0 mg/kg/injection, schedule: Q04DX003 (ip), vehicle: Klucel (hydroxypropylcellulose) (HPC)
# [9] = dose: 200.0 mg/kg/injection, schedule: Q01DX009 (ip), vehicle: Klucel (hydroxypropylcellulose) (HPC)
# [10] = dose: 200.0 mg/kg/injection, schedule: Q04DX003 (ip), vehicle: Klucel (hydroxypropylcellulose) (HPC)
# [11] = dose: 100.0 mg/kg/injection, schedule: Q04DX003 (ip), vehicle: saline with Tween-80
# [12] = dose: 200.0 mg/kg/injection, schedule: Q04DX003 (ip), vehicle: saline with Tween-80
# [13] = dose: 400.0 mg/kg/injection, schedule: Q04DX003 (ip), vehicle: saline with Tween-80
compound,measurement,setting,value
COc1ccc(C(=O)Nc2c(C)cccc2C)cc1,T/C,"dose: 100.0 mg/kg/injection, schedule: Q01DX009 (ip), vehicle: carboxymethylcellulose (CMC)",94 % of control and 90 % of control
same,T/C,"dose: 100.0 mg/kg/injection, schedule: Q04DX002 (ip), vehicle: Klucel (hydroxypropylcellulose) (HPC)",112 % of control
same,T/C,"dose: 100.0 mg/kg/injection, schedule: Q04DX002 (ip), vehicle: carboxymethylcellulose (CMC)",97 % of control and 108 % of control
same,T/C,"dose: 100.0 mg/kg/injection, schedule: Q04DX003 (ip), vehicle: carboxymethylcellulose (CMC)",104 % of control
same,T/C,"dose: 200.0 mg/kg/injection, schedule: Q01DX009 (ip), vehicle: carboxymethylcellulose (CMC)",94 % of control and 92 % of control
same,T/C,"dose: 200.0 mg/kg/injection, schedule: Q04DX002 (ip), vehicle: Klucel (hydroxypropylcellulose) (HPC)",108 % of control
same,T/C,"dose: 200.0 mg/kg/injection, schedule: Q04DX002 (ip), vehicle: carboxymethylcellulose (CMC)",100 % of control and 101 % of control
same,T/C,"dose: 200.0 mg/kg/injection, schedule: Q04DX003 (ip), vehicle: carboxymethylcellulose (CMC)",106 % of control
same,T/C,"dose: 400.0 mg/kg/injection, schedule: Q01DX009 (ip), vehicle: carboxymethylcellulose (CMC)",94 % of control and 97 % of control
same,T/C,"dose: 400.0 mg/kg/injection, schedule: Q04DX002 (ip), vehicle: Klucel (hydroxypropylcellulose) (HPC)",108 % of control
same,T/C,"dose: 400.0 mg/kg/injection, schedule: Q04DX002 (ip), vehicle: carboxymethylcellulose (CMC)",103 % of control
same,T/C,"dose: 400.0 mg/kg/injection, schedule: Q04DX003 (ip), vehicle: carboxymethylcellulose (CMC)",106 % of control
O=C1CCC(=O)N1CCc1csc2ccccc12,T/C,[1],110 % of control
same,T/C,"dose: 177.6 mg/kg/injection, schedule: Q01DX001 (ip), vehicle: carboxymethylcellulose (CMC)",95 % of control and 92 % of control
same,T/C,[2],96 % of control
same,T/C,"dose: 266.8 mg/kg/injection, schedule: Q01DX001 (ip), vehicle: carboxymethylcellulose (CMC)",93 % of control and 94 % of control
same,T/C,"dose: 600.0 mg/kg/injection, schedule: Q01DX001 (ip), vehicle: carboxymethylcellulose (CMC)",101 % of control and 91 % of control
CCCSc1ncnc2c1nc(C)n2CO,T/C,[3],114 % of control
same,T/C,[4],114 % of control
same,T/C,[5],121 % of control
O=S1(=O)Cc2ccccc2-c2ccccc2C1,T/C,"dose: 100.0 mg/kg/injection, schedule: Q04DX002 (ip), vehicle: gum acacia",103 % of control
same,T/C,"dose: 200.0 mg/kg/injection, schedule: Q04DX002 (ip), vehicle: gum acacia",103 % of control
same,T/C,"dose: 400.0 mg/kg/injection, schedule: Q04DX002 (ip), vehicle: gum acacia",106 % of control
O=C(/C(=N/Nc1ccccc1)c1ccccc1)c1ccccc1,T/C,"dose: 25.0 mg/kg/injection, schedule: Q04DX003 (ip), vehicle: Klucel (hydroxypropylcellulose) (HPC)",104 % of control
same,T/C,[6],95 % of control
same,T/C,[7],108 % of control
same,T/C,[8],100 % of control and 103 % of control
same,T/C,[9],104 % of control
same,T/C,[10],97 % of control
same,T/C,"dose: 400.0 mg/kg/injection, schedule: Q01DX009 (ip), vehicle: Klucel (hydroxypropylcellulose) (HPC)",104 % of control
same,T/C,"dose: 400.0 mg/kg/injection, schedule: Q04DX003 (ip), vehicle: Klucel (hydroxypropylcellulose) (HPC)",95 % of control
O=C(O)c1cccnc1Br,T/C,[11],105 % of control
same,T/C,[12],101 % of control
same,T/C,[13],100 % of control
CCN(CC)c1ccc(-c2nc3ccccc3s2)cc1,T/C,[6],99 % of control
same,T/C,[8],94 % of control
same,T/C,[10],91 % of control
CCCCNC(C)(C)COC(=O)/C=C/c1ccc(OCCCC)cc1,T/C,"dose: 50.0 mg/kg/injection, schedule: Q04DX003 (ip), vehicle: saline with Tween-80",92 % of control
same,T/C,[3],104 % of control
same,T/C,"dose: 100.0 mg/kg/injection, schedule: Q01DX015 (ip), vehicle: saline",86 % of control
same,T/C,[11],94 % of control
same,T/C,[4],102 % of control
same,T/C,"dose: 200.0 mg/kg/injection, schedule: Q01DX015 (ip), vehicle: saline",89 % of control
same,T/C,[12],105 % of control
O=C(O)c1ccc(NO)cc1,T/C,"dose: 24.0 mg/kg/injection, schedule: Q01DX Z (ip), vehicle: methylcellulose (MC)",103 % of control
same,T/C,"dose: 36.0 mg/kg/injection, schedule: Q01DX Z (ip), vehicle: methylcellulose (MC)",100 % of control
same,T/C,"dose: 55.0 mg/kg/injection, schedule: Q01DX Z (ip), vehicle: methylcellulose (MC)",102 % of control
same,T/C,"dose: 83.0 mg/kg/injection, schedule: Q01DX Z (ip), vehicle: methylcellulose (MC)",93 % of control
C[C@H]1CC[C@@H]2[C@@H](C)[C@H]3[C@H](C[C@H]4[C@@H]5CC=C6C[C@@H](O)CC[C@]6(C)[C@H]5C[C@H](O)[C@]34C)N2C1,T/C,"dose: 100.0 mg/kg/injection, schedule: Q01DX001 (sc), vehicle: steriod suspending solution",100 % of control
same,T/C,"dose: 200.0 mg/kg/injection, schedule: Q01DX001 (sc), vehicle: steriod suspending solution",91 % of control
same,T/C,"dose: 400.0 mg/kg/injection, schedule: Q01DX001 (sc), vehicle: steriod suspending solution",91 % of control
CC(C)(C)C1CC(Cl)C(=O)C(Cl)C1 (centres undefined),T/C,[3],104 % of control
same,T/C,"dose: 100.0 mg/kg/injection, schedule: Q04DX003 (ip), vehicle: saline",96 % of control
same,T/C,[4],94 % of control
same,T/C,"dose: 200.0 mg/kg/injection, schedule: Q04DX003 (ip), vehicle: saline",112 % of control
same,T/C,[5],88 % of control
same,T/C,"dose: 400.0 mg/kg/injection, schedule: Q04DX003 (ip), vehicle: saline",94 % of control
Cc1cc(=O)[nH]c(N/N=C/c2ccco2)n1,T/C,"dose: 50.0 mg/kg/injection, schedule: Q01DX009 (ip), vehicle: Klucel (hydroxypropylcellulose) (HPC)",96 % of control
same,T/C,[7],96 % of control
same,T/C,[8],87 % of control
same,T/C,[9],95 % of control
same,T/C,[10],90 % of control
O=S1(=O)CCC2CCCCC2C1 (centres undefined),T/C,"dose: 6.25 mg/kg/injection, schedule: Q01DX009 (ip), vehicle: saline with Tween-80",94 % of control
same,T/C,"dose: 12.5 mg/kg/injection, schedule: Q01DX009 (ip), vehicle: saline with Tween-80",100 % of control
same,T/C,"dose: 25.0 mg/kg/injection, schedule: Q01DX009 (ip), vehicle: saline with Tween-80",90 % of control
c1ccc2c(c1)Cc1c(-c3ccncc3)n[nH]c1-2,T/C,[11],93 % of control
same,T/C,[12],96 % of control
same,T/C,[13],86 % of control
COC1C(O)C(CO)OC1n1cnc2c(=S)nc[nH]c21 (centres undefined),T/C,"dose: 50.0 mg/kg/injection, schedule: Q01DX001 (ip), vehicle: carboxymethylcellulose (CMC)",102 % of control
same,T/C,"dose: 88.8 mg/kg/injection, schedule: Q01DX001 (ip), vehicle: carboxymethylcellulose (CMC)",102 % of control and 112 % of control
same,T/C,[1],102 % of control
same,T/C,"dose: 133.0 mg/kg/injection, schedule: Q01DX001 (ip), vehicle: carboxymethylcellulose (CMC)",110 % of control and 116 % of control
same,T/C,[2],110 % of control and 116 % of control
same,T/C,"dose: 300.0 mg/kg/injection, schedule: Q01DX001 (ip), vehicle: carboxymethylcellulose (CMC)",102 % of control and 116 % of control
same,T/C,"dose: 400.0 mg/kg/injection, schedule: Q01DX001 (ip), vehicle: carboxymethylcellulose (CMC)",102 % of control
c1ccc([P+](C[P+](c2ccccc2)(c2ccccc2)c2ccccc2)(c2ccccc2)c2ccccc2)cc1,T/C,"dose: 0.19 mg/kg/injection, schedule: Q01DX009 (ip), vehicle: Klucel (hydroxypropylcellulose) (HPC)",98 % of control
same,T/C,"dose: 0.39 mg/kg/injection, schedule: Q01DX009 (ip), vehicle: Klucel (hydroxypropylcellulose) (HPC)",175 % of control
same,T/C,"dose: 0.78 mg/kg/injection, schedule: Q01DX009 (ip), vehicle: Klucel (hydroxypropylcellulose) (HPC)",102 % of control
same,T/C,"dose: 1.56 mg/kg/injection, schedule: Q01DX009 (ip), vehicle: Klucel (hydroxypropylcellulose) (HPC)",97 % of control
same,T/C,"dose: 1.56 mg/kg/injection, schedule: Q04DX003 (ip), vehicle: Klucel (hydroxypropylcellulose) (HPC)",93 % of control
same,T/C,"dose: 3.12 mg/kg/injection, schedule: Q01DX009 (ip), vehicle: Klucel (hydroxypropylcellulose) (HPC)",97 % of control
same,T/C,"dose: 3.12 mg/kg/injection, schedule: Q04DX003 (ip), vehicle: Klucel (hydroxypropylcellulose) (HPC)",92 % of control
same,T/C,"dose: 6.25 mg/kg/injection, schedule: Q04DX003 (ip), vehicle: Klucel (hydroxypropylcellulose) (HPC)",90 % of control
C[PH+](c1ccccc1)c1ccccc1.C[PH+](c1ccccc1)c1ccccc1.O=C([S-])[S-].[Pt+2],T/C,"dose: 75.0 mg/kg/injection, schedule: Q04DX003 (ip), vehicle: saline",97 % of control
same,T/C,"dose: 150.0 mg/kg/injection, schedule: Q04DX003 (ip), vehicle: saline",92 % of control
same,T/C,"dose: 300.0 mg/kg/injection, schedule: Q04DX003 (ip), vehicle: saline",100 % of control
C[n+]1ccccc1,T/C,[3],94 % of control
same,T/C,[4],93 % of control
same,T/C,[5],104 % of control
